Legend:
[1] = system: corn; assay: Test C preemergence; type: in vivo, Zea mays; conditions: for Plant response rating (scale of 0 to 100 where 0 is no effect and 100 is complete control): Corn, preemergence; for Corn plant response rating (0 to 100): Preemergence, visual rating after 13 to 15 d
Text: (§1) Seeds of plant species selected from blackgrass (Alopecurus myosuroides), ryegrass, Italian (Italian ryegrass, Lolium multiflorum), wheat (winter wheat, Triticum aestivum), galium (catchweed bedstraw, Galium aparine), corn (Zea mays), crabgrass, large (large crabgrass, Digitaria sanguinalis), foxtail, giant, (giant foxtail, Setaria faberii), johnsongrass (Sorghum halepense), lambsquarters (Chenopodium album), morningglory (Ipomoea coccinea), nutsedge, yellow (yellow nutsedge, Cyperus esculentus), pigweed (Amaranthus retroflexus), ragweed (common ragweed, Ambrosia elatior), soybean (Glycine max), barnyardgrass (Echinochloa crus-galli), oilseed rape (Brassica napus), waterhemp (common waterhemp, Amaranthus rudis), and velvetleaf (Abutilon theophrasti) were planted into a blend of loam soil and sand and treated preemergence with test chemicals formulated in a non-phytotoxic solvent mixture which included a surfactant. At the same time, plants selected from these crop and weed species and also chickweed (common chickweed, Stellaria media), oat, wild (wild oat, Avena fatua), and kochia (Kochia scoparia), were planted in pots containing Sunshine Redi-Earth® planting medium comprising spaghnum peat moss, vermiculite, starter nutrients and dolomitic limestone and treated with postemergence applications of test chemicals formulated in the same manner. Plants ranged in height from 2 to 18 cm (1- to 4-leaf stage) for postemergence treatments. […] A dash (-) response means no test result.

[2] = system: windgrass; assay: Test D postemergence; type: in vivo, Apera spica-venti; conditions: scale 0 to 100
Text: (§2) Seeds of plant species selected from bluegrass (annual bluegrass, Poa annua), blackgrass (Alopecurus myosuroides), canarygrass (Phalaris minor), chickweed (common chickweed, Stellaria media), galium (catchweed bedstraw, Galium aparine), bromegrass, down (downy bromegrass, Bromus tectorum), Russian thistle (Salsola kali), field poppy (Papaver rhoeas), field violet (Viola arvensis), foxtail, green (green foxtail, Setaria viridis), deadnettle (henbit deadnettle, Lamium amplexicaule), ryegrass, Ital. (Italian ryegrass, Lolium multiflorum), kochia (Kochia scoparia), lambsquarters (Chenopodium album), oilseed rape (Brassica napus), pigweed (Amaranthus retroflexus), chamomile (scentless chamomile, Matricaria inodora), speedwell (bird's-eye speedwell, Veronica persica), barley, spring (spring barley, Hordeum vulgare), wheat, spring (spring wheat, Triticum aestivum), buckwheat, wild (wild buckwheat, Polygonum convolvulus), wild mustard (Sinapis arvensis), oat, wild (wild oat, Avena fatua), radish, wild (wild radish, Raphanus raphanistrum), […]), barley, winter (winter barley, Hordeum vulgare), and wheat, winter (winter wheat, Triticum aestivum) were planted into a silt loam soil and treated preemergence with test chemicals formulated in a non-phytotoxic solvent mixture which included a surfactant. At the same time, these species were planted in pots containing Sunshine Redi-Earth® planting medium comprising spaghnum peat moss, vermiculite, starter nutrients and dolomitic limestone and treated with postemergence applications of the test chemicals formulated in the same manner. Plants ranged in height from 2 to 18 cm (1- to 4-leaf stage). Treated plants and controls were maintained in a controlled growth environment for 14 to 21 d after which time all species were compared to controls and visually evaluated. […] A dash (-) response means no test result.

[3] = system: wild mustard; assay: Test D postemergence; type: in vivo, Sinapis arvensis; conditions: scale 0 to 100
Text: as §2

[4] = system: buckwheat, wild; assay: Test D preemergence; type: in vivo, Polygonum convolvulus; conditions: scale 0 to 100
Text: as §2

[5] = system: ryegrass, Ital.; assay: Test D postemergence; type: in vivo, Lolium multiflorum; conditions: scale 0 to 100
Text: as §2

[6] = system: deadnettle; assay: Test D preemergence; type: in vivo, Lamium amplexicaule; conditions: scale 0 to 100
Text: as §2

[7] = system: windgrass; assay: Test D preemergence; type: in vivo, Apera spica-venti; conditions: scale 0 to 100
Text: as §2

[8] = system: ryegrass, Italian; assay: Test C preemergence; type: in vivo, Lolium multiflorum; conditions: for Ryegrass, Italian plant response rating (0 to 100): Preemergence, visual rating after 13 to 15 d; for Plant response rating (scale of 0 to 100 where 0 is no effect and 100 is complete control): Ryegrass, Italian, preemergence
Text: as §1

[9] = system: soybean; assay: Test C preemergence; type: in vivo, Glycine max; conditions: for Soybean plant response rating (0 to 100): Preemergence, visual rating after 13 to 15 d; for Plant response rating (scale of 0 to 100 where 0 is no effect and 100 is complete control): Soybean, preemergence, 250 g ai/ha
Text: as §1

[10] = system: field violet; assay: Test D postemergence; type: in vivo, Viola arvensis; conditions: scale 0 to 100
Text: as §2

[11] = system: waterhemp; assay: Test C preemergence; type: in vivo, Amaranthus rudis; conditions: for Waterhemp plant response rating (0 to 100): Preemergence, visual rating after 13 to 15 d; for Plant response rating (scale of 0 to 100 where 0 is no effect and 100 is complete control): Waterhemp, preemergence, 250 g ai/ha
Text: as §1

[12] = system: kochia; assay: Test A preemergence; type: in vivo, Kochia scoparia; conditions: 0 to 100 scale (0 no effect, 100 complete control)
Text: Seeds of plant species selected from barnyardgrass (Echinochloa crus-galli), crabgrass, large (large crabgrass, Digitaria sanguinalis), kochia (Kochia scoparia), ragweed (common ragweed, Ambrosia elatior), foxtail, giant (giant foxtail, Setaria faberii), morningglory (Ipomoea spp.), pigweed (Amaranthus retroflexus), velvetleaf (Abutilon theophrasti), ryegrass, Italian (Italian ryegrass, Lolium multiflorum), wheat (Triticum aestivum), and corn (Zea mays) were planted into a blend of loam soil and sand and treated preemergence with a directed soil spray using test chemicals formulated in a non-phytotoxic solvent mixture which included a surfactant.
At the same time, plants selected from these crop and weed species and also blackgrass (Alopecurus myosuroides), and galium (catchweed bedstraw, Galium aparine), were planted in pots containing the same blend of loam soil and sand and treated with postemergence applications of test chemicals formulated in the same manner. Plants ranged in height from 2 to 10 cm and were in the one- to two-leaf stage for the postemergence treatment. Treated plants and untreated controls were maintained in a greenhouse for approximately 10 d, after which time all treated plants were compared to untreated controls and visually evaluated for injury. Plant response ratings, summarized in Table A, are based on a 0 to 100 scale where 0 is no effect and 100 is complete control. A dash (-) response means no test result.

## CCc1nc(-c2ccc(C(F)(F)F)cc2)nn1Cc1ccnc(C(F)(F)F)c1 [Compound 1, 4-[[5-ethyl-3-[4-(trifluoromethyl)phenyl]-1H-1,2,4-triazol-1-yl]methyl]-2-(trifluoromethyl)pyridine]
[1]; 125 g ai/ha
  Plant response rating (scale of 0 to 100 where 0 is no effect and 100 is complete control): 25
[1]; 250 g ai/ha
  Plant response rating (scale of 0 to 100 where 0 is no effect and 100 is complete control): 40
[1]; 31 g ai/ha
  Corn plant response rating (0 to 100): 5
[1]; 62 g ai/ha
  Corn plant response rating (0 to 100): 15
[2]; 31 g ai/ha
  Plant response rating: Windgrass: 15
[2]; 62 g ai/ha
  Plant response rating: Windgrass: 20
[2]; 125 g ai/ha
  Plant response rating: Windgrass: 30
[2]; 250 g ai/ha
  Plant response rating: Windgrass: 60
[3]; 31 g ai/ha
  Plant response rating: Mustard, Wild: 100
[3]; 62 g ai/ha
  Plant response rating: Mustard, Wild: 100
[3]; 125 g ai/ha
  Plant response rating: Mustard, Wild: 100
[3]; 250 g ai/ha
  Plant response rating: Mustard, Wild: 100
[4]; 31 g ai/ha
  Plant response rating: Buckwheat, Wild: 60
[4]; 62 g ai/ha
  Plant response rating: Buckwheat, Wild: 70
[4]; 125 g ai/ha
  Plant response rating: Buckwheat, Wild: 65
[4]; 250 g ai/ha
  Plant response rating: Buckwheat, Wild: 100
[5]; 31 g ai/ha
  Plant response rating: Ryegrass, Ital.: 10
[5]; 62 g ai/ha
  Plant response rating: Ryegrass, Ital.: 15
[5]; 125 g ai/ha
  Plant response rating: Ryegrass, Ital.: 20
[5]; 250 g ai/ha
  Plant response rating: Ryegrass, Ital.: 35
[6]; 31 g ai/ha
  Plant response rating: Deadnettle: 100
[6]; 62 g ai/ha
  Plant response rating: Deadnettle: 100
[6]; 125 g ai/ha
  Plant response rating: Deadnettle: 100
[6]; 250 g ai/ha
  Plant response rating: Deadnettle: 100
[7]; 62 g ai/ha
  Plant response rating: Windgrass: 100
[7]; 125 g ai/ha
  Plant response rating: Windgrass: 100
[7]; 250 g ai/ha
  Plant response rating: Windgrass: 100
[8]; 31 g ai/ha
  Ryegrass, Italian plant response rating (0 to 100): 5
[8]; 62 g ai/ha
  Ryegrass, Italian plant response rating (0 to 100): 10
[8]; 125 g ai/ha
  Plant response rating (scale of 0 to 100 where 0 is no effect and 100 is complete control): 90
[9]; 31 g ai/ha
  Soybean plant response rating (0 to 100): 0
[9]; 62 g ai/ha
  Soybean plant response rating (0 to 100): 5
[9]
  Plant response rating (scale of 0 to 100 where 0 is no effect and 100 is complete control): 20
[10]; 31 g ai/ha
  Plant response rating: Field Violet: 100
[10]; 62 g ai/ha
  Plant response rating: Field Violet: 100
[10]; 125 g ai/ha
  Plant response rating: Field Violet: 100
[10]; 250 g ai/ha
  Plant response rating: Field Violet: 100

## CCCc1nc(-c2ccc(F)cc2)nn1Cc1ccnc(C(F)(F)F)c1 [Compound 6, 4-[[3-(4-fluorophenyl)-5-propyl-1H-1,2,4-triazol-1-yl]methyl]-2-(trifluoromethyl)pyridine]
[1]; 125 g ai/ha
  Plant response rating (scale of 0 to 100 where 0 is no effect and 100 is complete control): 50
[1]; 250 g ai/ha
  Plant response rating (scale of 0 to 100 where 0 is no effect and 100 is complete control): 50
[1]; 31 g ai/ha
  Corn plant response rating (0 to 100): 15
[1]; 62 g ai/ha
  Corn plant response rating (0 to 100): 35
[8]; 31 g ai/ha
  Ryegrass, Italian plant response rating (0 to 100): 30
[8]; 62 g ai/ha
  Ryegrass, Italian plant response rating (0 to 100): 70
[8]; 125 g ai/ha
  Plant response rating (scale of 0 to 100 where 0 is no effect and 100 is complete control): 80
[8]; 250 g ai/ha
  Plant response rating (scale of 0 to 100 where 0 is no effect and 100 is complete control): 100
[9]; 31 g ai/ha
  Soybean plant response rating (0 to 100): 5
[9]; 62 g ai/ha
  Soybean plant response rating (0 to 100): 5
[9]
  Plant response rating (scale of 0 to 100 where 0 is no effect and 100 is complete control): 70

## COc1nc(-c2ccc(F)cc2)nn1Cc1ccnc(C(F)(F)F)c1 [Compound 9, 4-[[3-(4-fluorophenyl)-5-methoxy-1H-1,2,4-triazol-1-yl]methyl]-2-(trifluoromethyl)pyridine]
[1]; 125 g ai/ha
  Plant response rating (scale of 0 to 100 where 0 is no effect and 100 is complete control): 25
[1]; 250 g ai/ha
  Plant response rating (scale of 0 to 100 where 0 is no effect and 100 is complete control): 55
[1]; 31 g ai/ha
  Corn plant response rating (0 to 100): 0
[1]; 62 g ai/ha
  Corn plant response rating (0 to 100): 5
[11]; 31 g ai/ha
  Waterhemp plant response rating (0 to 100): 100
[11]; 62 g ai/ha
  Waterhemp plant response rating (0 to 100): 100
[11]
  Plant response rating (scale of 0 to 100 where 0 is no effect and 100 is complete control): 100
[8]; 31 g ai/ha
  Ryegrass, Italian plant response rating (0 to 100): 5
[8]; 62 g ai/ha
  Ryegrass, Italian plant response rating (0 to 100): 25
[8]; 125 g ai/ha
  Plant response rating (scale of 0 to 100 where 0 is no effect and 100 is complete control): 65
[8]; 250 g ai/ha
  Plant response rating (scale of 0 to 100 where 0 is no effect and 100 is complete control): 85
[9]; 31 g ai/ha
  Soybean plant response rating (0 to 100): 0
[9]; 62 g ai/ha
  Soybean plant response rating (0 to 100): 0
[9]
  Plant response rating (scale of 0 to 100 where 0 is no effect and 100 is complete control): 40

## COc1nc(-c2ccc(C(F)(F)F)cc2)nn1Cc1ccnc(C(F)(F)F)c1 [Compound 25]
[12]; 31 g ai/ha
  Plant response rating, Kochia: 20
[12]; 125 g ai/ha
  Plant response rating, Kochia: 80

## CCOc1nc(-c2ccc(Cl)cc2)nn1Cc1ccnc(C(F)(F)F)c1 [Compound 26]
[12]; 31 g ai/ha
  Plant response rating, Kochia: 60
[12]; 125 g ai/ha
  Plant response rating, Kochia: 90

## COc1nc(-c2ccccc2)nn1Cc1ccnc(C(F)(F)F)c1 [Compound 32]
[1]; 125 g ai/ha
  Plant response rating (scale of 0 to 100 where 0 is no effect and 100 is complete control): 5
[1]; 250 g ai/ha
  Plant response rating (scale of 0 to 100 where 0 is no effect and 100 is complete control): 20
[1]; 31 g ai/ha
  Corn plant response rating (0 to 100): 0
[1]; 62 g ai/ha
  Corn plant response rating (0 to 100): 0
[11]; 31 g ai/ha
  Waterhemp plant response rating (0 to 100): 90
[11]; 62 g ai/ha
  Waterhemp plant response rating (0 to 100): 100
[11]
  Plant response rating (scale of 0 to 100 where 0 is no effect and 100 is complete control): 100
[12]; 125 g ai/ha
  Plant response rating, Kochia: 100
[12]; 500 g ai/ha, approx. 10 d
  Plant response rating, Kochia: 100
[8]; 31 g ai/ha
  Ryegrass, Italian plant response rating (0 to 100): 0
[8]; 62 g ai/ha
  Ryegrass, Italian plant response rating (0 to 100): 0
[8]; 125 g ai/ha
  Plant response rating (scale of 0 to 100 where 0 is no effect and 100 is complete control): 0
[8]; 250 g ai/ha
  Plant response rating (scale of 0 to 100 where 0 is no effect and 100 is complete control): 10
[9]; 31 g ai/ha
  Soybean plant response rating (0 to 100): 0
[9]; 62 g ai/ha
  Soybean plant response rating (0 to 100): 0
[9]
  Plant response rating (scale of 0 to 100 where 0 is no effect and 100 is complete control): 5

## CCCOc1nc(-c2ccccc2)nn1Cc1ccnc(C(F)(F)F)c1 [Compound 33]
[12]; 125 g ai/ha
  Plant response rating, Kochia: 60
[12]; 500 g ai/ha, approx. 10 d
  Plant response rating, Kochia: 90
